Read-outs that look alike come from different tables or passages of the source.
Experiments:
[1] = tested on: Pennsylvania smartweed (PS); test: PRE greenhouse, 2,4-DC + sulfentrazone (Tables 3-3B), % control; format: in vivo, Polygonum pennsylvanicum; conditions: 28 DAT, g ai/ha by row: r7-35 2,4-DC 31.2/62.5/125/250/375 (3 rows each) + sulfentrazone 105/210/315 (cycling), r37-41 2,4-DC 31.2/62.5/125/250/375, r42-44 sulfentrazone 105/210/315
Protocol: (§1) Test compositions containing 2,4-DC Example 1B and sulfentrazone (Spartan® 4F, 39.6% active ingredient, FMC Corp.) and mixtures of 2-(2,4-dichlorophenyl)methyl-4,4-dimethyl-3-isoxazolidinone and sulfentrazone, were diluted with water to provide the appropriate test rate concentration.
(§2) The test weeds were Pennsylvania smartweed (PS) (Polygonum pennsylvanicum), Palmer amaranth (PA) (Amaranthus palmeri), velvetleaf (VL) (Abutilon theophrasti), green foxtail (GF) (Setaria viridis), morningglory (MG) (Ipomoea spp.), yellow nutsedge (YN) (Cyperus esculentus), purple nutsedge (PN) (Cyperus rotundus), and benghal dayflower (BD) (Commelina benghalensis). Crops included in the evaluation were corn, wheat, and cowpea. […]
(§3) The application rates are those shown in Table 3, 3A, an d 3B below for the individual herbicidal solutions and the herbicide compositions of the present invention. […] The control of weeds was evaluated in each experimental test at 28 days after treatment (DAT), 14 DAT for crops. […] Percent weed control was determined by a method similar to the 0 to 100 rating system disclosed in “Research Methods in Weed Science,” 2nd ed., B. Truelove, Ed.; Southern Weed Science Society; Auburn University, Auburn, Ala., 1977.

Palmer amaranth (PA) = test: PRE greenhouse, 2,4-DC + sulfentrazone, % control; format: in vivo, Amaranthus palmeri; conditions: 28 DAT, g ai/ha by row: r7-35 2,4-DC 31.2/62.5/125/250/375 (3 rows each) + sulfentrazone 105/210/315 (cycling), r37-41 2,4-DC 31.2/62.5/125/250/375, r42-44 sulfentrazone 105/210/315
Protocol: as §1, §2, §3

velvetleaf (VL) = test: PRE greenhouse, 2,4-DC + sulfentrazone, % control; format: in vivo, Abutilon theophrasti; conditions: 28 DAT, g ai/ha by row: r7-35 2,4-DC 31.2/62.5/125/250/375 (3 rows each) + sulfentrazone 105/210/315 (cycling), r37-41 2,4-DC 31.2/62.5/125/250/375, r42-44 sulfentrazone 105/210/315
Protocol: as §1, §2, §3

green foxtail (GF) = test: PRE greenhouse, 2,4-DC + sulfentrazone, % control; format: in vivo, Setaria viridis; conditions: 28 DAT, g ai/ha by row: r7-35 2,4-DC 31.2/62.5/125/250/375 (3 rows each) + sulfentrazone 105/210/315 (cycling)
Protocol: as §1, §2, §3

morningglory (MG) = test: PRE greenhouse, 2,4-DC + sulfentrazone, % control; format: in vivo, Ipomoea spp.; conditions: 28 DAT, g ai/ha by row: r7-35 2,4-DC 31.2/62.5/125/250/375 (3 rows each) + sulfentrazone 105/210/315 (cycling), r37-41 2,4-DC 31.2/62.5/125/250/375, r42-44 sulfentrazone 105/210/315
Protocol: as §1, §2, §3

yellow nutsedge (YN) = test: PRE greenhouse, 2,4-DC + sulfentrazone, % control; format: in vivo, Cyperus esculentus; conditions: 28 DAT, g ai/ha by row: r8-16 2,4-DC 50/100/200 (3 rows each) + sulfentrazone 105/210/315 (cycling)
Protocol: as §1
(§4) The test weeds were Pennsylvania smartweed (PS) (Polygonum pennsylvanicum), Palmer amaranth (PA) (Amaranthus palmeri), velvetleaf (VL) (Abutilon theophrasti), green foxtail (GF) (Setaria viridis), morningglory (MG) (Ipomoea spp.), yellow nutsedge (YN) (Cyperus esculentus), purple nutsedge (PN) (Cyperus rotundus), and benghal dayflower (BD) (Commelina benghalensis). Crops included in the evaluation were corn, wheat, and cowpea.
(§5) For pre-emergence testing, four disposable fiber flats (6″ by 10″) for each rate of application of each herbicide solution were filled with top soil, to which seeds of each species were planted in furrows made by a template pressed on the top of the soil. The furrows with crop/weed seeds were covered with soil and were watered well before application of the test compounds. Flats designated for treatment were placed in a spray chamber having a static platform and a movable sprayer and height of the spray nozzle was 10.5 inches above the soil level. Once the sprayer was calibrated using water for spray volume of 30 gallons per acre, flats were sprayed with sprayer at a speed to receive a coverage equivalent of 30 gallons per acre.
The application rates are those shown in Table 3, 3A, an d 3B below for the individual herbicidal solutions and the herbicide compositions of the present invention. The pre-emergence flats were immediately placed in the greenhouse and watered lightly after treatment for herbicide activation. Thereafter they were regularly watered and feterilized for the duration of the test. The control of weeds was evaluated in each experimental test at 28 days after treatment (DAT), 14 DAT for crops. The results, shown as an average of the replications, were compared with results observed in untreated control flats in the same tests. Percent weed control was determined by a method similar to the 0 to 100 rating system disclosed in “Research Methods in Weed Science,” 2nd ed., B. Truelove, Ed.; Southern Weed Science Society; Auburn University, Auburn, Ala., 1977.

purple nutsedge (PN) = test: PRE greenhouse, 2,4-DC + sulfentrazone, % control; format: in vivo, Cyperus rotundus; conditions: 28 DAT, g ai/ha by row: r8-16 2,4-DC 50/100/200 (3 rows each) + sulfentrazone 105/210/315 (cycling)
Protocol: as §1, §2, §3

benghal dayflower (BD) = test: PRE greenhouse, 2,4-DC + sulfentrazone, % control; format: in vivo, Commelina benghalensis; conditions: 28 DAT, g ai/ha by row: r8-16 2,4-DC 50/100/200 (3 rows each) + sulfentrazone 105/210/315 (cycling)
Protocol: as §1, §4, §5
The application rates are those shown in Table 3, 3A, an d 3B below for the individual herbicidal solutions and the herbicide compositions of the present invention. The pre-emergence flats were immediately placed in the greenhouse and watered lightly after treatment for herbicide activation. […] The control of weeds was evaluated in each experimental test at 28 days after treatment (DAT), 14 DAT for crops. […] Percent weed control was determined by a method similar to the 0 to 100 rating system disclosed in “Research Methods in Weed Science,” 2nd ed., B. Truelove, Ed.; Southern Weed Science Society; Auburn University, Auburn, Ala., 1977.

Corn = conditions: 21 DAT, PRE
Description: (Ipomoea spp.); Italian ryegrass (Lolium perenne L. ssp. multiflorum, LOLMU). Crops tested included corn, wheat, cotton, cowpea, and bush bean.
Palmer amaranth, common ragweed, Pennsylvania smartweed, velvetleaf, wild oat, green foxtail, morningglory, and Italian ryegrass were screened. […] Thereafter flats were watered and fertilized routinely.

weeds = test: Ex10 PRE greenhouse; format: in vivo; conditions: 28 DAT, weed and rate in the words
Description: Treatments 1-12 of 2,4-DC and aclonifen tank-mix combinations follow same rates listed above. […] Sulfentrazone (Spartan 4F® 39.6%) at 280 g ai/ha, pendimethalin (Prowl 3.3®EC, 37.4%) at 784 g ai/ha, or S-metolachlor (Dual II Magnum® 82.4%) at 1084 g ai/ha were applied as commercial standards. Treatments were replicated 3 times and flats were watered after planting but before the treatment and lightly watered after treatment application. Thereafter flats were watered and fertilized routinely. […] Shepherd's-purse was rated at 21 and 28 DAT only, due to delayed emergence.

weeds; Sugarcane (CTC20) = test: Ex23 PRE greenhouse; conditions: 28 DAT, weed and rate in the words
Protocol: (Ipomoea spp). The tested crop in this study was Sugarcane (CTC20).
Sugarcane was direct seeded into 6″ plastic pots using 3-4″ sugarcane setts, oriented bud up, with bud leaf shield removed. 2,4 DC and sulfentrazone were applied alone or combined as tank-mix at each rate mentioned below. […] Treatments were replicated 3 times. […] Thereafter flats were watered and fertilized routinely. […] Visual percent sugarcane injury was recorded at 21 and 28 DAT, using a scale of 0 (no injury, observed as bleaching, stunting or necrosis) to 100 (complete plant death).

sedges = test: Ex26 PRE greenhouse; format: in vivo; conditions: 28 DAT, weed and rate in the words
Description: Treatments were applied at the time of planting to yellow nutsedge, purple nutsedge, and benghal dayflower. […] Flats were watered and fertilized routinely after treatment application.

[2] = tested on: weeds; corn, wheat, cotton, cowpea, and bush bean; test: Ex42 PRE greenhouse; format: in vivo; conditions: crop and rate in the words
Description: Thereafter flats were watered and fertilized routinely.

[3] = r17-19 2,4-DC 50/100/200, r20-22 sulfentrazone 105/210/315, 105 g ai/ha
[4] = r17-19 2,4-DC 50/100/200, r20-22 sulfentrazone 105/210/315, 210 g ai/ha
[5] = r17-19 2,4-DC 50/100/200, r20-22 sulfentrazone 105/210/315, 315 g ai/ha

Question: Which results are given for `Cc1nn(-c2cc(NS(C)(=O)=O)c(Cl)cc2Cl)c(=O)n1C(F)F` [sulfentrazone]?
Answer: % Control PS [1]: 100%; % Control PA (Palmer amaranth (PA)): 100%; % Control VL (velvetleaf (VL)): 100%; % Control GF (green foxtail (GF); r37-41 2,4-DC 31.2/62.5/125/250/375, r42-44 sulfentrazone 105/210/315, 105 g ai/ha): 84%; % Control GF (green foxtail (GF); r37-41 2,4-DC 31.2/62.5/125/250/375, r42-44 sulfentrazone 105/210/315, 210 g ai/ha): 100%; % Control MG (morningglory (MG)): 100%; % Control YN (yellow nutsedge (YN); [3]): 85%; % Control YN (yellow nutsedge (YN); [4]): 95%; % Control YN (yellow nutsedge (YN); [5]): 100%; % Control PN (purple nutsedge (PN); [3]): 77%; % Control PN (purple nutsedge (PN); [5]): 83%; % Control BD (benghal dayflower (BD); [3]): 72%; % Control BD (benghal dayflower (BD); [4]): 88%; % Control BD (benghal dayflower (BD); [5]): 90%; crop injury, Sulfentrazone alone (Corn; sulfentrazone 105 g ai/ha): 3%; crop injury, Sulfentrazone alone (Corn; sulfentrazone 210 g ai/ha): 10%; crop injury, Sulfentrazone alone (Corn; sulfentrazone 315 g ai/ha): 38%; weed control in words (weeds): at 280 g provided control of all weeds except quackgrass, annual bluegrass, and blackgrass; weed control in words (weeds; Sugarcane (CTC20)): alone controlled hairy beggarticks at 315 g; all other weeds were controlled with all rates; weed control in words (sedges): alone controlled yellow nutsedge at all rates, benghal dayflower at 210 or 315 g and did not control purple nutsedge at any rate; crop safety in words [2]: alone was safe on corn and bush bean only at 105 g, wheat and cowpea at 105 or 210 g 14 DAT

Reference: patent US12616203B2, “Use of 3-isoxazolidinones compounds as selective herbicides” (FMC Corporation, priority 2014, dated 2026)
